Measurements from patent publication US4732892A, “L-α-amino acids as transdermal penetration enhancers” (priority 1985, dated 1988).
Where two headings read alike, the source gives them in different places. Each block holds one compound with its values, some of them ahead of it.

Key:
[1] = in vitro penetration of levonorgestrel across hairless mouse skin, modified Franz diffusion cell
Description: In the examples, the steady state rate of penetration, or flux, is indicated by the symbol: Jss. The cumulative amount of drug penetrated is indicated by the Symbol: Q. The lag period to reach steady state is indicated by the symbol: tL. The standard deviation for statistical purposes is abbreviated: S.D. The standard error of the mean for statistical purposes is abbreviated S.E.M. Abbreviation "g" denotes grams, "mg" denotes milligram, "mcg" denotes micrograms and "ng" denotes nanograms.
Initially, twelve amino acids were selected for evaluation of their effect on the rate of penetration of levonorgestrel through hairless mouse skin. Differing amino acids were selected according to the structure of their side chain so that at least one amino acid from each of the seven different chemical groups was studied. […] These were incorporated into transdermal drug formulations and the corresponding rates of penetration were determined. […] A total of 36 out of a possible 48 formulations were evaluated. The effect of amino acid, pH and ionic species on the rate of penetration was then analyzed.
The amino acids were dissolved in distilled water and the pH was adjusted by addition of either 0.1 or 1.ON HCl or 1.0N NaOH. Ethanol was then added to give a final ethanol concentration of 40% w/w. The pH was monitored and recorded. […] 1%(w/w) levonorgestrel was suspended in this solvent system. Suspensions were applied to hairless mouse skin as described above.
The penetration of drug across hairless mouse skin was studied in vitro using a modified Franz diffusion cell apparatus as described by Y. W. Chien, P. R. Keshary, Y. C. Huany and P. P. Sarpotdar in "Comparative Controlled Skin Permeation of Nitroglycerin from Marketed Transdermal Delivery Systems," J. Pharmaceutical Sciences, Vol. 72, No. 8 August 1983, pp. 968-970. […] Samples were withdrawn at predetermined times up to a total of 10 hours.
Subsequently, rates of penetration were also determined (in hairless mouse skin a described above) for Norleucine, Norvaline and α-Amino-n-Butyric Acid.

[2] = pH values at which amino acids were tested; cited from earlier work
[3] = Table II, average of all data at all pH values, amino acid 0.2 M

SMILES: C[C@H](N)C(=O)O [Alanine, L-Alanine]
Jss, steady state rate of penetration of levonorgestrel [1]: 0.8553 mcg/cm^2 /hr
Jss, steady state rate of penetration of levonorgestrel ([1]; pH 4.8): 0.8553 mcg/cm^2 /hr

SMILES: N=C(N)NCCC[C@H](N)C(=O)O [Arginine, L-(+)-Arginine]
Jss, steady state rate of penetration of levonorgestrel [1, 3]: 0.8864 mcg/cm^2 /hr
Jss, steady state rate of penetration of levonorgestrel ([1]; Table VI, at pK2', pH 10.8): 1.012 mcg/cm^2 hr
Jss, steady state rate of penetration of levonorgestrel ([1]; pH 2.9): 0.688 mcg/cm^2 /hr
Jss, steady state rate of penetration of levonorgestrel ([1]; pH 4.2): 0.9590 mcg/cm^2 /hr
Jss, steady state rate of penetration of levonorgestrel ([1]; pH 10.8): 1.012 mcg/cm^2 /hr
pHISO (isoelectric pH) [2]: 10.8

SMILES: N[C@@H](CC(=O)O)C(=O)O [Aspartic Acid, L-(+)-Aspartic Acid]
Jss, steady state rate of penetration of levonorgestrel [1, 3]: 1.1538 mcg/cm^2 /hr
Jss, steady state rate of penetration of levonorgestrel ([1]; pH 4.4): 1.1538 mcg/cm^2 /hr

SMILES: N[C@@H](CS)C(=O)O [Cysteine, L-(+)-Cysteine]
Jss, steady state rate of penetration of levonorgestrel [1]: 1.6160 mcg/cm^2 /hr
effect on penetration at specific pHs, in words ([1]; Tables III-VI): greatest affect on penetration
overall rate of penetration of levonorgestrel, ranking in words ([1]; average of all pH values, P=0.05): provided the highest rates
Jss, steady state rate of penetration of levonorgestrel ([1]; pH 2.3): 2.154 mcg/cm^2 /hr
rate of penetration of levonorgestrel, ranking in words ([1]; pH 2.3 to 3.2 (pK1')): significantly increased rate
Jss, steady state rate of penetration of levonorgestrel ([1]; pH 4.9): 1.1635 mcg/cm^2 /hr
rate of penetration of levonorgestrel, ranking in words ([1]; pK2' (pH 8.6-10.8)): fastest rate of penetration

SMILES: N[C@@H](CCC(=O)O)C(=O)O [Glutamic Acid, L-Glutamic Acid]
Jss, steady state rate of penetration of levonorgestrel ([1]; Table II, average of all data at all pH values, amino acid 0.03 M): 0.8277 mcg/cm^2 /hr
Jss, steady state rate of penetration of levonorgestrel ([1]; Table VI, at pK2', pH 9.9): 0.450 mcg/cm^2 hr
Jss, steady state rate of penetration of levonorgestrel ([1]; pH 3.8): 0.842 mcg/cm^2 /hr
Jss, steady state rate of penetration of levonorgestrel ([1]; pH 4.6): 1.1910 mcg/cm^2 /hr
Jss, steady state rate of penetration of levonorgestrel ([1]; pH 9.9): 0.450 mcg/cm^2 /hr
rate of penetration of levonorgestrel (in words) ([1]; pH between 4.0 and 5.0): relatively high rates of penetration
pHISO (isoelectric pH) [2]: 3.8

SMILES: NCC(=O)O [Glycine]
effect of hundred-fold concentration difference on rate of penetration ([1]; Glycine buffer, previous experimentation): no significant difference in the rate of penetration
Jss, steady state rate of penetration of levonorgestrel ([1]; Table VI, at pK2', pH 9.6): 1.003 mcg/cm^2 hr
Jss, steady state rate of penetration of levonorgestrel ([1]; pH 2.4): 0.557 mcg/cm^2 /hr
Jss, steady state rate of penetration of levonorgestrel ([1]; pH 4.7): 1.2790 mcg/cm^2 /hr
Jss, steady state rate of penetration of levonorgestrel ([1]; pH 6.0): 0.532 mcg/cm^2 /hr
Jss, steady state rate of penetration of levonorgestrel ([1]; pH 9.6): 1.003 mcg/cm^2 /hr

SMILES: C#C[C@]1(O)CC[C@H]2[C@@H]3CCC4=CC(=O)CC[C@@H]4[C@H]3CC[C@@]21CC [Levonorgestrel, reference compound]
effect of pH on rate of penetration ([1]; amino acid present in the formulation): not affected significantly by changing pH
Average rate of penetration of levonorgestrel in the presence of amino acids ([1]; pH 2.5): 1.0980 mcg/cm^2 /hr
Average rate of penetration of levonorgestrel in the presence of amino acids ([1]; pH 4.5): 1.1279 mcg/cm^2 /hr
Average rate of penetration of levonorgestrel in the presence of amino acids ([1]; pH 6.1): 1.2798 mcg/cm^2 /hr
Average rate of penetration of levonorgestrel in the presence of amino acids ([1]; pH 9.6): 1.0598 mcg/cm^2 /hr

Now from value to compound:

Jss, steady state rate of penetration of levonorgestrel [1]: 1.5542 mcg/cm^2 /hr
effect on penetration at specific pHs, in words [1]: greatest affect on penetration
overall rate of penetration of levonorgestrel, ranking in words [1]: provided the highest rates
rate of penetration of levonorgestrel (in words) [1]: relatively high rates of penetration
Jss, steady state rate of penetration of levonorgestrel ([1]; pH 2.4): 0.921 mcg/cm^2 /hr
Jss, steady state rate of penetration of levonorgestrel ([1]; pH 4.5): 1.3328 mcg/cm^2 /hr
Jss, steady state rate of penetration of levonorgestrel ([1]; pH 6): 3.167 mcg/cm^2 /hr
SMILES: CC[C@H](C)[C@H](N)C(=O)O [Isoleucine, L-(+)-Isoleucine]

Jss, steady state rate of penetration of levonorgestrel [1]: 0.8462 mcg/cm^2 /hr
Jss, steady state rate of penetration of levonorgestrel ([1]; pH 2.3): 0.765 mcg/cm^2 /hr
Jss, steady state rate of penetration of levonorgestrel ([1]; pH 4.6): 1.0863 mcg/cm^2 /hr
Jss, steady state rate of penetration of levonorgestrel ([1]; pH 6.7): 0.688 mcg/cm^2 /hr
SMILES: O=C(O)[C@@H]1CCCN1 [Proline, L-(-)-Proline]

Jss, steady state rate of penetration of levonorgestrel [1]: 0.8628 mcg/cm^2 /hr
Jss, steady state rate of penetration of levonorgestrel ([1]; pH 4.7): 1.1287 mcg/cm^2 /hr
Jss, steady state rate of penetration of levonorgestrel ([1]; pH 5.7): 0.896 mcg/cm^2 /hr
SMILES: N[C@@H](CO)C(=O)O [Serine, L-(-)-Serine]

Jss, steady state rate of penetration of levonorgestrel [1]: 0.6033 mcg/cm^2 /hr
Jss, steady state rate of penetration of levonorgestrel ([1]; pH 3.2): 0.641 mcg/cm^2 /hr
Jss, steady state rate of penetration of levonorgestrel ([1]; pH 4.7): 0.6020 mcg/cm^2 /hr
Jss, steady state rate of penetration of levonorgestrel ([1]; pH 6.5): 0.567 mcg/cm^2 /hr
SMILES: N[C@@H](Cc1c[nH]c2ccccc12)C(=O)O [Tryptophan, L-(-)-Tryptophan]

Jss, steady state rate of penetration of levonorgestrel [1]: 1.8006 mcg/cm^2 /hr
effect on penetration at specific pHs, in words [1]: greatest affect on penetration
Jss, steady state rate of penetration of levonorgestrel ([1]; pH 2.4): 1.492 mcg/cm^2 /hr
Jss, steady state rate of penetration of levonorgestrel ([1]; pH 4.7): 1.7903 mcg/cm^2 /hr
Jss, steady state rate of penetration of levonorgestrel ([1]; pH 5.9): 2.276 mcg/cm^2 /hr
SMILES: CC(C)[C@H](N)C(=O)O [Valine, L-(+)-Valine]
